For assay [1], the target named is IL-17A(FLAG-Tagged): IL-17RA(His-Tagged) (Homo sapiens, UniProt Q16552, K93Q). Kind of assay: IL-17A(FLAG-Tagged): IL-17RA(His-Tagged) Binding Disruption Eu-HTRF Assay, Protocol 1. The settings on record: Protocol 1, FLAG tagged IL-17A 2.5 nM; simple average if tested more than once. The text has this: An antibody directed against the FLAG tag of IL-17A (SEQ ID NO: 1) is labeled with the HTRF donor chromophore (Europium-cryptate). IL-17A is present as a dimer that is “locked into” this quaternary structure due to the formation of loop-spanning […] disulfide bridges. The construct of IL-17RA used in the assay excludes the […] portion of the receptor and is fused to a C-terminal 10×His tag (SEQ ID NO:2). An antibody directed against the His tag of the IL-17RA chimera is labeled with the HTRF acceptor chromophore (“D2”). The fluorescence-resonance energy transfer (FRET) depends on the vicinity of the donor chromophore to the acceptor, and interruption of the binding between the IL-17A and IL-17RA causes the reduction/loss of FRET. Therefore, this assay allows to evaluate the compound effect on the binding IL-17A and IL-17RA by monitoring the fluorescence intensity of donor vs acceptor. The assay was run using either Protocol 1 or Protocol 2 as described below.
Sequence of UniProt Q16552 (Q16552 with tags, fused parts or gaps K93Q): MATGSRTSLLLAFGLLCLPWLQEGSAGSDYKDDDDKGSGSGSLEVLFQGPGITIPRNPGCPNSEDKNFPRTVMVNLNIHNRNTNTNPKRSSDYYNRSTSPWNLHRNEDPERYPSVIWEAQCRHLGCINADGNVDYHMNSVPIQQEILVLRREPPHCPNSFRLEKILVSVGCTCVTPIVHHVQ
Protocol 1. 40 nl of 2-fold serial diluted compound solution for total 22 dilution points is added into each well of a 1536-well, white, low-volume, non-binding plate (Greiner #782904), then 2 μl of FLAG tagged IL-17A at 2× final concentration (2.5 nM) in solution of PBS+0.01% Triton-X100 is added to each well. The assay plate is briefly centrifuged then incubated for 1 h at rt. A mixed solution is prepared containing 2×5 nM 10HIS×IL-17RA, 2×2.5 nM Eu-anti-FLAG (CISBIO), 2×5 nM D2-anti-HIS (CISBIO) in PBS+0.01% Triton-X100+200 mM Potassium Fluoride (Sigma 60238) and 2 μl of mix is added to each well of the assay plate. The plate is briefly centrifuged then incubated for 2 h at rt. The HTRF intensities at the wavelength of donor (620 nm) and acceptor (665 nm) are measured using BMG Pherastar. The ratio between intensities at two wavelengths is calculated and plotted against the compound concentration and the data is fitted to a one-site competition model to yield IC50 of the compound.
On the technique in general: TR-FRET usually uses a lanthanide donor and a delayed reading to cut background.

Assay [2] concerns IL-17A-induced G-CSF production in human normal keratinocyte (NHK). Kind of assay: NHK Assay: IL-17A-induced G-CSF production in human normal keratinocyte. The assay is classed as cell-based. To be noted: Homo sapiens, Keratinocyte, 24 h, IL-17A 5 ng/mL, simple average if tested more than once. How it is done: IL-17A acts directly on keratinocytes through binding to dimeric receptor IL-17RA/RC and drives the production of a number of inflammatory mediators known to be elevated in psoriasis lesional tissue. IL-17A small molecule inhibitors that block the IL-17A to interact with IL-17R would inhibit the IL-17A signaling in its targeted cells such as keratinocytes. The compound functional activity is evaluated for its impact on IL-17A-induced G-CSF production in human normal keratinocyte (NHK).
Adult normal human keratinocytes are cultured in keratinocyte growth medium (Lonza) in a flask till reaching ˜90% confluence, then cells are transferred to a 384-well plate at density of 3000-4000 cell/well. Recombinant human IL-17A (Gibco PHC9174) is pre-incubated with titrated compound or DMSO for 1 h at rt then added to the cell culture plate. The final concentration of IL-17A is 5 ng/mL and DMSO is 0.2%, in the culture containing 5% FBS. Cells are cultured/treated for 24 h at 37° C. Supernatants are collected and G-CSF production is measured through HTRF technology using Human G-CSF Kit (CisBio). G-CSF concentration was extrapolated from the standard curve and IC50 is determined using GraphPad Prism. Cell viability is also evaluated using CellTiter-Glo kit (Promega) and effect of compound on cell viability is compared to DMSO control.

As usually defined, the IC50 is the concentration at which inhibition is half-maximal.

As for `[2H]C1([2H])[C@@H](C(F)(F)F)NC(=O)N1[C@H](COC1CC1)c1ccc2[nH]c([C@H](COC(C)(C)C(F)(F)F)NC(=O)c3nonc3C)nc2c1` (relative stereo) [Example 59, N—((R*)-1-(5-((S*)-2-Cyclopropoxy-1-((S*)-2-oxo-4-(trifluoromethyl)imidazolidin-1-yl-5,5-d2)ethyl)-1H-benzo[d]imidazol-2-yl)-2-((1,1,1-trifluoro-2-methylpropan-2-yl)oxy)ethyl)-4-methyl-1,2,5-oxadiazole-3-carboxamide], the IC50 in assay [1] and in assay [2] was under 50 nM each time.
For `Cc1nonc1C(=O)NC(COC(C)(C)C(F)(F)F)c1nc2nc([C@@H](C3CC3)N3CC(F)(F)CNC3=O)ccc2[nH]1` (single isomer, unassigned) [Example 18, N—((R*)-1-(5-((R)-Cyclopropyl(5,5-difluoro-2-oxotetrahydropyrimidin-1(2H)-yl)methyl)-1H-imidazo[4,5-b]pyridin-2-yl)-2-((1,1,1-trifluoro-2-methylpropan-2-yl)oxy)ethyl)-4-methyl-1,2,5-oxadiazole-3-carboxamide], the IC50 was under 50 nM in assay [1] and 50 to 100 nM in assay [2].
As for `Cc1nonc1C(=O)N[C@@H](COC(C)(C)C(F)(F)F)c1nc2cc(CN3C[C@](C)(C(F)(F)F)NC3=O)ccc2[nH]1` (relative stereo) [Example 57, 4-Methyl-N—((R*)-1-(5-(((R*)-4-methyl-2-oxo-4-(trifluoromethyl)imidazolidin-1-yl)methyl)-1H-benzo[d]imidazol-2-yl)-2-((1,1,1-trifluoro-2-methylpropan-2-yl)oxy)ethyl)-1,2,5-oxadiazole-3-carboxamide], the IC50 is under 50 nM in assay [1] and over 100 nM in assay [2].
In the same order, the values of `CC(C)n1nccc1C(=O)N[C@@H](COC(C)(C)C(F)(F)F)c1nc2cc([C@@H](C3CC3)N3CC(F)(F)CNC3=O)ccc2[nH]1` [Example 24, N—((R)-1-(5-((R)-Cyclopropyl(5,5-difluoro-2-oxotetrahydropyrimidin-1(2H)-yl)methyl)-1H-benzo[d]imidazol-2-yl)-2-((1,1,1-trifluoro-2-methylpropan-2-yl)oxy)ethyl)-1-isopropyl-1H-pyrazole-5-carboxamide] are under 50 nM and under 50 nM.
In the same order, the values of `COC[C@H](c1ccc2[nH]c(C(COC(C)(C)C(F)(F)F)NC(=O)c3nonc3C)nc2c1)N1C[C@@H](C(F)(F)F)NC1=O` (single isomer, unassigned) [Example 31, N—((R*)-1-(5-((S)-2-Methoxy-1-((S)-2-oxo-4-(trifluoromethyl)imidazolidin-1-yl)ethyl)-1H-benzo[d]imidazol-2-yl)-2-((1,1,1-trifluoro-2-methylpropan-2-yl)oxy)ethyl)-4-methyl-1,2,5-oxadiazole-3-carboxamide] are under 50 nM and under 50 nM.
In the same order, the values of `[2H]C1([2H])[C@H](C(F)(F)F)NC(=O)N1[C@@H](c1ccc2[nH]c([C@H](CC(C)(C)C(F)(F)F)NC(=O)c3nonc3C)nc2c1)C1CC1` (relative stereo) [Example 53, N—((S)-1-(5-((R)-Cyclopropyl((S*)-2-oxo-4-(trifluoromethyl)imidazolidin-1-yl-5,5-d2)methyl)-1H-benzo[d]imidazol-2-yl)-4,4,4-trifluoro-3,3-dimethylbutyl)-4-methyl-1,2,5-oxadiazole-3-carboxamide] are under 50 nM and under 50 nM.
On to `COC[C@H](c1ccc2[nH]c([C@@H](NC(=O)c3nonc3C)[C@@H](C)O[C@@H](C)C(F)(F)F)nc2c1)N1CC(F)(F)CNC1=O` [Example 50, N-((1R,2R)-1-(5-((S)-1-(5,5-Difluoro-2-oxotetrahydropyrimidin-1(2H)-yl)-2-methoxyethyl)-1H-benzo[d]imidazol-2-yl)-2-(((S)-1,1,1-trifluoropropan-2-yl)oxy)propyl)-4-methyl-1,2,5-oxadiazole-3-carboxamide], for which the IC50 in assay [1] and in assay [2] was under 50 nM in each case.
Turning to `C[C@H](c1ccc2[nH]c([C@H](COC(C)(C)C(F)(F)F)NC(=O)c3nonc3C3CC3)nc2c1)N1CC(F)(F)CNC1=O` (relative stereo) [Example 25, 4-Cyclopropyl-N—((R)-1-(5-((R*)-1-(5,5-difluoro-2-oxotetrahydropyrimidin-1(2H)-yl)ethyl)-1H-benzo[d]imidazol-2-yl)-2-((1,1,1-trifluoro-2-methylpropan-2-yl)oxy)ethyl)-1,2,5-oxadiazole-3-carboxamide], the concentration for half-maximal inhibition (IC50) in assay [1] and in assay [2] was under 50 nM throughout.
`Cc1nonc1C(=O)NC(c1nc2nc([C@@H](C3CC3)N3CC(F)(F)CNC3=O)ccc2[nH]1)[C@@H](C)O[C@H](C)C(F)(F)F` (single isomer, unassigned) [Example 19, N-((1R*,2R)-1-(5-((R)-Cyclopropyl(5,5-difluoro-2-oxotetrahydropyrimidin-1(2H)-yl)methyl)-1H-imidazo[4,5-b]pyridin-2-yl)-2-(((R)-1,1,1-trifluoropropan-2-yl)oxy)propyl)-4-methyl-1,2,5-oxadiazole-3-carboxamide]: the 50% inhibitory concentration (IC50) was under 50 nM in assay [1] and 50 to 100 nM in assay [2].
In the same order, the values of `Cc1nonc1C(=O)N[C@@H](COC(C)(C)C(F)(F)F)c1nc2cc([C@H](N3CC(F)(F)CNC3=O)C3(C#N)CC3)ccc2[nH]1` (relative stereo) [Example 40, N—((R*)-1-(5-((S*)-(1-Cyanocyclopropyl)(5,5-difluoro-2-oxotetrahydropyrimidin-1(2H)-yl)methyl)-1H-benzo[d]imidazol-2-yl)-2-((1,1,1-trifluoro-2-methylpropan-2-yl)oxy)ethyl)-4-methyl-1,2,5-oxadiazole-3-carboxamide] are 50 to 100 nM and over 100 nM.
As for `[2H]C1([2H])[C@@H](C(F)(F)F)NC(=O)N1[C@@H](c1ccc2[nH]c([C@@H](NC(=O)c3nonc3C)[C@@H](C)O[C@H](C)C(F)(F)F)nc2c1)C1CC1` (relative stereo) [Example 9, N-((1R*,2R)-1-(5-((R)-Cyclopropyl((S*)-2-oxo-4-(trifluoromethyl)imidazolidin-1-yl-5,5-d2)methyl)-1H-benzo[d]imidazol-2-yl)-2-(((R)-1,1,1-trifluoropropan-2-yl)oxy)propyl)-4-methyl-1,2,5-oxadiazole-3-carboxamide], the IC50 in assay [1] and in assay [2] was under 50 nM throughout.
Regarding `CC(C)(OC[C@H](NC(=O)c1nonc1C1CC1)c1nc2nc(CN3C[C@@H](C(F)(F)F)NC3=O)ccc2[nH]1)C(F)(F)F` (relative stereo) [Example 39, 4-Cyclopropyl-N—((R*)-1-(5-(((S*)-2-oxo-4-(trifluoromethyl)imidazolidin-1-yl)methyl)-1H-imidazo[4,5-b]pyridin-2-yl)-2-((1,1,1-trifluoro-2-methylpropan-2-yl)oxy)ethyl)-1,2,5-oxadiazole-3-carboxamide], the IC50 in assay [1] and in assay [2] was over 100 nM each time.
Consider `CC(C)(OC[C@H](NC(=O)c1nonc1C1CC1)c1nc2cc(CN3C[C@@](C)(C(F)(F)F)NC3=O)ccc2[nH]1)C(F)(F)F` (relative stereo) [Example 61, 4-Cyclopropyl-N—((R*)-1-(5-(((S*)-4-methyl-2-oxo-4-(trifluoromethyl)imidazolidin-1-yl)methyl)-1H-benzo[d]imidazol-2-yl)-2-((1,1,1-trifluoro-2-methylpropan-2-yl)oxy)ethyl)-1,2,5-oxadiazole-3-carboxamide], for which the IC50 in assay [1] and in assay [2] was under 50 nM throughout.

The values above are taken from patent US20250122181A1, “BENZIMIDAZOLES AS MODULATORS OF IL-17” (Janssen Pharmaceutica NV, priority 2021, published 2025).
